From patent US9522141B2, “Indazole compounds as aldosterone synthase inhibitors” (Merck Sharp & Dohme Corp., priority 2012, dated 2016)

Tests used:
[1] = target: T1, human CYP11B2 (Homo sapiens, UniProt P19099); assay: V79-Human-CYP11B2 cell assay; assay type: cell-based; conditions: V79 cells stably expressing human CYP11B2; 125 nM 11-deoxycorticosterone substrate; aldosterone by HTRF
T1 construct: expressed in transfected cells; host or cells: V79 cells (clone V79-hCYP11B2-CLE9)
T1 sequence (P19099 25-503): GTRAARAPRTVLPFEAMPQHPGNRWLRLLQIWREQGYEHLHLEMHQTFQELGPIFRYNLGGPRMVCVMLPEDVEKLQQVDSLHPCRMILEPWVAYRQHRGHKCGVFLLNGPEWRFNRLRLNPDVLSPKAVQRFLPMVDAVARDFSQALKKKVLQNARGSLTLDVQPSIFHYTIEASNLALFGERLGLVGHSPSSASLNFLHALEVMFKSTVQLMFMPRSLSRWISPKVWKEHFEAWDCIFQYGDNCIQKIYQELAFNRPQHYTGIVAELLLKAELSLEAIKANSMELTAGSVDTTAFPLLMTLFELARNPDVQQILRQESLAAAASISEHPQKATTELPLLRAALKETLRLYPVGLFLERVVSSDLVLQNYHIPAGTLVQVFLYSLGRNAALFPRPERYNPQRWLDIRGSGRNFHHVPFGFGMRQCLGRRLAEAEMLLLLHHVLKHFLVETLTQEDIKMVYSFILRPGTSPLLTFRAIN
Method: (§1) Methods for V79-Human-CYP11B2 and V79-Human-CYP11B1 Assays: V79 cell lines stably expressing the either the human CYP11B2 or the human CYP11B1 enzyme were generated using a standard transfection protocol. V79 cells were transfected with plasmids pTriEx3-Hygro-hCyp11B2 or pTriEx3-Hygro-hCyp11B1 using Lipofectamine2000 reagent. […] Single cell clones were generated by […] in DMEM supplemented with 10% FBS and 400 μg/mL hygromycin until single colonies were obtained. […] The reaction was carried out for 3 hours at 37° C., 5% CO2 and was stopped by harvesting the supernatants. […] IC50s for the inhibitor were determined by plotting the amount of product formed against the concentration of inhibitor using sigmoidal dose-response curve (variable slope) fit in GraphPad.

[2] = target: T2, human CYP11B1 (Homo sapiens, UniProt P15538); assay: V79-Human-CYP11B1 cell assay; assay type: cell-based; conditions: V79 cells stably expressing human CYP11B1; 250 nM 11-deoxycortisol substrate; cortisol by HTRF
T2 construct: expressed in transfected cells; host or cells: V79 cells (clone V79-hCYP11B1-8CLC7)
T2 sequence (P15538 25-503): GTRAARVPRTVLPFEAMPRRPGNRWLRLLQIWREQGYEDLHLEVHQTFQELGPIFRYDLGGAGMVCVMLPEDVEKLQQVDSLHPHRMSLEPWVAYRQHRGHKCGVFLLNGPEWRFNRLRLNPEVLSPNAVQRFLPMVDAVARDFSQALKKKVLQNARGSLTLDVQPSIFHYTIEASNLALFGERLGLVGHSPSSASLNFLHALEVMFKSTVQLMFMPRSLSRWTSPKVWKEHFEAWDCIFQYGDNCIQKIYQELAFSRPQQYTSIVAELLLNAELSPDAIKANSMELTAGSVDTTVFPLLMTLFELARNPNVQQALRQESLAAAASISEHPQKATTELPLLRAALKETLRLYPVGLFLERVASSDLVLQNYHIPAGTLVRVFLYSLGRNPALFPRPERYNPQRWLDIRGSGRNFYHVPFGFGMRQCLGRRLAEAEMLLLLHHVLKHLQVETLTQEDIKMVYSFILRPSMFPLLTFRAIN
Method: as §1

Compound | IC50 [1] [nM] | IC50 [2] [nM]
Fc1ccc2c(cnn2-c2cncc(C(F)(F)F)c2)c1 [Example 6, 5-fluoro-1-(5-(trifluoromethyl)pyridin-3-yl)-1H-indazole] | 83 | 1910
Clc1cccc2c1cnn2-c1cncc(N2CCC2)n1 [Example 90, 1-(6-azetidin-1-ylpyrazin-2-yl)-4-chloro-1H-indazole] | 1.6 | 31.5
Fc1cc2cnn(-c3cncc4ccccc34)c2cc1F [Example 46, 4-(5,6-difluoro-1H-indazol-1-yl)isoquinoline] | 1.9 | 107
CN(C)c1cncc(-n2ncc3c(Cl)cccc32)n1 [Example 88, 6-(4-chloro-1H-indazol-1-yl)-N,N-dimethylpyrazin-2-amine] | 17.5 | 633
CC(C)(O)c1cncc(-n2ncc3cc(F)c(F)cc32)c1 [Example 54, 2-(5-(5,6-difluoro-1H-indazol-1-yl)pyridin-3-yl)propan-2-ol] | 23 | 305
CCc1c(F)cncc1-n1ncc2c(F)cccc21 [Example 42, 1-(4-ethyl-5-fluoropyridin-3-yl)-4-fluoro-1H-indazole] | 131 | 1800
C[C@](O)(c1cncc(-n2ncc3c(C(F)(F)F)cccc32)c1)C(F)(F)F [Example 85, (S)-1,1,1-trifluoro-2-(5-(4-(trifluoromethyl)-1H-indazol-1-yl)pyridin-3-yl)propan-2-ol] | 2.2 | 98
Cc1nn(-c2cncc(C(F)(F)F)c2)c2cccc(F)c12 [Example 36, 4-fluoro-3-methyl-1-(5-(trifluoromethyl)pyridin-3-yl)-1H-indazole] | 17 | 257
CC(O)(c1cncc(-n2ncc3c2CCCC3)c1)C(F)(F)F (centres unmarked) [Example 75] | 7.7 | 498
CC(C)(O)c1cncc(-n2ncc3cccc(F)c32)c1 [Example 68, 2-(5-(7-fluoro-1H-indazol-1-yl)pyridin-3-yl)propan-2-ol] | 1.2 | 36.4
